The source of these data is US20100075965A1, “PI3 KINASE INHIBITORS AND METHODS OF THEIR USE” (Novartis AG, priority 2006, published 2010).

One assay addresses PI3 K Alpha (Homo sapiens, UniProt P42336). Description: PI3 kinase phosphorylation assays (homogenous solution phase, one step solid phase, ATP depletion/KinaseGlo). The class given is biochemical. In general terms: Kinase-Glo measures the ATP left after a reaction by luminescence.
In assay [1] the test system is pSer473-Akt in A2780 cells. Nature of the assay: pSer473 Akt assay to monitor PI3K pathway in A2780 cells (MSD). The assay is classed as cell-based. The settings on record: Homo sapiens, A2780 cells. A digest of the protocol:
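A2780 cells (15,000/well, adhered overnight) treated 1 h at 37 °C with compound, then lysed; pSer473-Akt and total Akt measured by MSD electrochemiluminescence. The pSer473/total Akt ratio gave percent inhibition versus DMSO, from which EC50 was derived.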

A further assay relates to A2780 cells. Nature of the assay: Viability assay in A2780 (Cell Titer Glo). The settings on record: Homo sapiens, A2780 cells, read-out: A2780 Cell prolif. EC50. The assay is classed as cell-based, human. A digest of the protocol:
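A2780 cells (1,000/well, DMEM + 10% FBS) were exposed to 3-fold serial dilutions of compound for 72 hrs at 37° C, 5% CO2. Viable cells were read by Cell Titer Glo luminescence, in duplicate, and EC50 values were derived from the curves.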

Structures are written as SMILES. Read-outs that look alike come from different tables or passages of the source.

Sequence of PI3 K Alpha (P42336 whole entry): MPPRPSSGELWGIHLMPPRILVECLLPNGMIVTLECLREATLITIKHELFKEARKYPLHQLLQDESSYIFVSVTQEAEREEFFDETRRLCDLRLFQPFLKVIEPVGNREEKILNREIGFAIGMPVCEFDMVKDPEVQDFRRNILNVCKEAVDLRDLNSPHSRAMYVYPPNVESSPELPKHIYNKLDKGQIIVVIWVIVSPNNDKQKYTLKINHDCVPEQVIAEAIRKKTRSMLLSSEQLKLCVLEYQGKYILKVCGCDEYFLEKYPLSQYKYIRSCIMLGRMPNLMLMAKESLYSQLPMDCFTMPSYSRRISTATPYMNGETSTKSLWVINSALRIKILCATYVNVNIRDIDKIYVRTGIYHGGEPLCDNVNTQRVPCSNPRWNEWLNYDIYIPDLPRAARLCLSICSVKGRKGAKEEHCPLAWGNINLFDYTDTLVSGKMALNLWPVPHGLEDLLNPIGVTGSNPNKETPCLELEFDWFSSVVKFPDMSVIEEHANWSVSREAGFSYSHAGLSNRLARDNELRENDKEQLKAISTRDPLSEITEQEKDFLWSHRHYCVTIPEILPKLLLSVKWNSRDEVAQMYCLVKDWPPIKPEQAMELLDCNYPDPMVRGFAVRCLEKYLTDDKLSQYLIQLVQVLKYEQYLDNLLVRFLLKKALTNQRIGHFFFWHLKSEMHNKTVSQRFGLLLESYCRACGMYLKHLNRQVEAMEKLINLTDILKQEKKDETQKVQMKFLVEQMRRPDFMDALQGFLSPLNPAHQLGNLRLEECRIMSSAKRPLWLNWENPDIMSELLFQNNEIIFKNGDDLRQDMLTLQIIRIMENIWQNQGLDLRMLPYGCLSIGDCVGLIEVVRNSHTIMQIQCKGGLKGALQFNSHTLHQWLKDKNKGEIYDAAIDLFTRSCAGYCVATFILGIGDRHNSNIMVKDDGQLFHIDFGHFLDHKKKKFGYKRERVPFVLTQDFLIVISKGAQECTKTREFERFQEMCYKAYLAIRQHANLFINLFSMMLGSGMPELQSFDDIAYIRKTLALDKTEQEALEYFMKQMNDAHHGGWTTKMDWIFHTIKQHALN
Sequence of PI3 K Alpha (P27986 whole entry partner): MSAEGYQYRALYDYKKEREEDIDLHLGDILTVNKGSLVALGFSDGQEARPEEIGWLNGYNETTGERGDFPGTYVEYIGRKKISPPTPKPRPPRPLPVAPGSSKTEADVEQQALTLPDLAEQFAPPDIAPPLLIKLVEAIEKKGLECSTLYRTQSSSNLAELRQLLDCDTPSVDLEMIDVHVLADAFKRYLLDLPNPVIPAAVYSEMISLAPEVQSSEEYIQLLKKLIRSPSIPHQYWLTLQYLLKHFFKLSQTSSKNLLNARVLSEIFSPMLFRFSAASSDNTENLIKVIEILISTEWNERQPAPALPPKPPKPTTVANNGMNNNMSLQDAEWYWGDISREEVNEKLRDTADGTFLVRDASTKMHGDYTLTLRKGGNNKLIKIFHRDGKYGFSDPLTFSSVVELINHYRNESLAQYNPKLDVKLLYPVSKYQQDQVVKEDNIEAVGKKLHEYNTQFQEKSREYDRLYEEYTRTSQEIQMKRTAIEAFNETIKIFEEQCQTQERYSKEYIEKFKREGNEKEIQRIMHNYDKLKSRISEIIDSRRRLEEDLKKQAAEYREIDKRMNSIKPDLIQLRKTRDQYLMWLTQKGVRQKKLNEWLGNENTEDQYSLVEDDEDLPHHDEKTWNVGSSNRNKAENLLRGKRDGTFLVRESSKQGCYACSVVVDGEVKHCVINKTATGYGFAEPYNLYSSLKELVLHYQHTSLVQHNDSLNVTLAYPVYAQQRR

As a reminder, the IC50 is the concentration at which inhibition is half-maximal. What is called EC50 is the concentration at which the effect is half-maximal. In the case of `CC(=O)Nc1cn2cc(-c3cnc(N)c(/C=N/Nc4ccccc4)c3)ccc2n1` [Example 58, (E)-N-(6-(6-amino-5-((2-phenylhydrazono)methyl)pyridin-3-yl)imidazo[1,2-a]pyridin-2-yl)acetamide], the IC50 on PI3 K Alpha (read-out: PI3K Alpha IC50) is below 1000 nM. The EC50 in assay [1] (read-out: A2780 pAKT 473 EC50) is below 10000 nM; in the assay on A2780 cells it was below 1000 nM.
With `COc1cc(-c2ccc3nc(NC(C)=O)cn3c2)c(C)nc1N` [Example 33, N-(6-(6-amino-5-methoxy-2-methylpyridin-3-yl)imidazo[1,2-a]pyridin-2-yl)acetamide], at PI3 K Alpha (read-out: PI3K Alpha IC50), the IC50 is above 25000 nM. Moreover, the EC50 in assay [1] (read-out: A2780 pAKT 473 EC50) was below 25000 nM; in the assay with A2780 cells, below 10000 nM.
In the case of `Nc1ccc(-c2ccc3nc(NC(=O)CCCN4CCOCC4)sc3c2)cn1` [Example 2-10, N-[6-(6-Amino-pyridin-3-yl)-benzothiazol-2-yl]-4-morpholin-4-yl-butyramide], the 50% inhibitory concentration (IC50) on PI3 K Alpha (ATP depletion assay, read-out: PI3 K Alpha IC50) is below 1000 nM. In addition, the EC50 in assay [1] (1 h, one hour incubation, read-out: A2780 pAKT473 EC50) was below 1000 nM; in the assay on A2780 cells (72 hrs), below 25000 nM.
For the compound `CC(C)(C)OC(=O)NCCCC(=O)Nc1cn2nc(-c3cnc(N)c(C(F)(F)F)c3)ccc2n1` [Example 79, tert-butyl 4-(6-(6-amino-5-(trifluoromethyl)pyridin-3-yl)imidazo[1,2-b]pyridazin-2-ylamino)-4-oxobutylcarbamate], the IC50 on PI3 K Alpha (read-out: PI3K Alpha IC50) was below 1000 nM. Further, the EC50 in assay [1] (read-out: A2780 pAKT 473 EC50) is below 10000 nM; in the assay on A2780 cells, below 1000 nM.
Consider `Nc1ncc(-c2ccc3nc(NC(=O)CCCN4CCOCC4)cn3n2)cc1C(F)(F)F` [Example 108, N-(6-(6-amino-5-(trifluoromethyl)pyridin-3-yl)imidazo[1,2-b]pyridazin-2-yl)-4-morpholino-butanamide], for which the IC50 at PI3 K Alpha (read-out: PI3K Alpha IC50) is below 1000 nM. In addition, the EC50 (in assay [1] (read-out: A2780 pAKT 473 EC50); with A2780 cells) was below 1000 nM each time.
Turning to `CC(=O)Nc1cn2cc(-c3cnc(N)c(Oc4cccc(F)c4)n3)ccc2n1` [Example 65, N-(6-(5-amino-6-(3-fluorophenoxy)pyrazin-2-yl)imidazo[1,2-a]pyridin-2-yl)acetamide], the half-inhibitory concentration (IC50) on PI3 K Alpha (read-out: PI3K Alpha IC50) was below 1000 nM. Further, the EC50 (in assay [1] (read-out: A2780 pAKT 473 EC50); in the assay with A2780 cells) was below 1000 nM throughout.
`CC(C)(C)OC(=O)N1CC[C@H](OCC(=O)Nc2cn3nc(-c4cnc(N)c(C(F)(F)F)c4)ccc3n2)C1` [Example 98, (S)-tert-butyl 3-(2-(6-(6-amino-5-(trifluoromethyl)pyridin-3-yl)imidazo[1,2-b]pyridazin-2-ylamino)-2-oxoethoxy) pyrrolidine-1-carboxylate]: the IC50 on PI3 K Alpha (read-out: PI3K Alpha IC50) is below 1000 nM. Besides, the EC50 (in assay [1] (read-out: A2780 pAKT 473 EC50); with A2780 cells) was below 1000 nM in each case.
On to `CC(C)(C)OC(=O)N1CCN(c2ccc(C(=O)Nc3cn4cc(-c5cnc(N)c(C(F)(F)F)c5)ccc4n3)cn2)CC1` [Example 85, tert-butyl 4-(5-(6-(6-amino-5-(trifluoromethyl)pyridin-3-yl)imidazo[1,2-a]pyridin-2-ylcarbamoyl)pyridin-2-yl)piperazine-1-carboxylate], for which, at PI3 K Alpha (read-out: PI3K Alpha IC50), the IC50 was below 1000 nM. Also, the EC50 (in assay [1] (read-out: A2780 pAKT 473 EC50); in the assay with A2780 cells) was below 1000 nM each time.
Regarding `CC(=O)Nc1nc2ccc(-c3cnc(N)c(C(F)(F)F)c3)cn2c1Cl` [Example 7, N-[6-(6-Amino-5-trifluoromethyl-pyridin-3-yl)-3-chloro-imidazo[1,2-a]pyridin-2-yl]-acetamide], the IC50 on PI3 K Alpha (read-out: PI3K Alpha IC50) was below 1000 nM. Moreover, the EC50 (in assay [1] (read-out: A2780 pAKT 473 EC50); in the assay with A2780 cells) was below 10000 nM in each case.
As for `CNCC(=O)Nc1cn2cc(-c3cnc(N)c(C(F)(F)F)c3)ccc2n1` [Example 80, N-(6-(6-amino-5-(trifluoromethyl)pyridin-3-yl)imidazo[1,2-a]pyridin-2-yl)-2-(methylamino) acetamide], at PI3 K Alpha (read-out: PI3K Alpha IC50), the IC50 is below 1000 nM. The EC50 (in assay [1] (read-out: A2780 pAKT 473 EC50); in the assay on A2780 cells) was below 1000 nM each time.
For the compound `Nc1ncc(-c2ccc3nc(NC(=O)c4ccc(N5CCNCC5)nc4)cn3c2)cc1C(F)(F)F` [Example 126, N-(6-(6-amino-5-(trifluoromethyl)pyridin-3-yl)imidazo[1,2-a]pyridin-2-yl)-6-(piperazin-1-yl)nicotinamide], the IC50 at PI3 K Alpha (read-out: PI3K Alpha IC50) was below 1000 nM. For the same compound, the EC50 in assay [1] (read-out: A2780 pAKT 473 EC50) was below 1000 nM; in the assay on A2780 cells, below 10000 nM.
Turning to `CC(=O)Nc1cn2nc(-c3cnc(N)c(-c4ccccc4C(F)(F)F)c3)ccc2n1` [Example 53, N-(6-(6-amino-5-(2-(trifluoromethyl)phenyl)pyridin-3-yl)imidazo[1,2-b]pyridazin-2-yl)acetamide], the IC50 at PI3 K Alpha (read-out: PI3K Alpha IC50) is below 1000 nM. For the same compound, the EC50 (in assay [1] (read-out: A2780 pAKT 473 EC50); in the assay with A2780 cells) was below 1000 nM each time.
Take `Nc1ncc(-c2ccc3nc(NC(=O)CO[C@@H]4CCNC4)cn3n2)cc1C(F)(F)F` [Example 69, (R)-N-(6-(6-amino-5-(trifluoromethyl)pyridin-3-yl)imidazo[1,2-b]pyridazin-2-yl)-2-(pyrrolidin-3-yloxy)acetamide]: on PI3 K Alpha (read-out: PI3K Alpha IC50), the IC50 is below 1000 nM. Also, the EC50 (in assay [1] (read-out: A2780 pAKT 473 EC50); in the assay on A2780 cells) was below 1000 nM throughout.
With `CC(=O)Nc1cn2cc(-c3cnc(N)c(-c4ccc(OC(F)(F)F)cc4)c3)ccc2n1` [Example 97, N-(6-(6-amino-5-(4-(trifluoromethoxy)phenyl)pyridin-3-yl)imidazo[1,2-a]pyridin-2-yl)acetamide], at PI3 K Alpha (read-out: PI3K Alpha IC50), the concentration for half-maximal inhibition (IC50) is below 1000 nM. Besides, the values for the EC50 (in assay [1] (read-out: A2780 pAKT 473 EC50); with A2780 cells) were below 10000 nM and below 1000 nM, respectively.
